Where “and” joins values, the source holds several entries; their conditions need not be identical. Identical values can stand only once.
Experiment: Adverse events during switch from oral to i.v. selexipag and back in subjects with stable PAH (Phase 3 study)
Type: in vivo, human
Experimental: This was a prospective, multicenter, open-label, single-sequence, cross-over, Phase 3 study. Based on the dose of selexipag received at study entry, subjects were allocated to one of the following groups, selexipag 200-1000 μg b.i.d. or selexipag 1200-1600 μg b.i.d. See, FIG. 1. The study comprised the following periods:
(ii) Treatment and observation period: The treatment and observation period included the following consecutive periods: • Period 1 included oral selexipag pre-treatment period for 1 day, in-hospital. This period started with intake of the morning dose of oral selexipag on Day 1 at Visit 2 and ended the following day, before initiation of the first infusion of i.v. selexipag. • Period 2 included i.v. selexipag treatment period for 36 hours [3 infusions], in-hospital. This period started in the morning of Day 2 at Visit 2 with the start of the first infusion of i.v. selexipag and ended in the evening of Day 3 at Visit 2 before the evening administration of oral selexipag. Administration of oral selexipag was interrupted during the i.v. selexipag treatment period. • Period 3 included oral selexipag post-treatment period for 7 to 11 day. This period started in the evening of Day 3 at Visit 2 with the administration of oral selexipag and ended 7-11 days later, at Visit 3.
The endpoints analyzed for Period 1, Period 2, and Period 3 and follow-up period combined included discontinuations due to prostacyclin-associated AEs, adverse events (AEs) and serious adverse events (SAEs), prostacyclin-associated AEs, AEs related to injection site reactions, and PAH-related AEs.
The endpoints analyzed for (i) Period 1, Period 2, and Period 3 and follow-up period combined (ii) Period 1 and Period 2 combined, and (iii) Period 2 and Period 3 combined included discontinuations due to prostacyclin-associated AEs, discontinuations due to any AEs, AEs and SAEs, prostacyclin-associated AEs, PAH-related AEs, change from baseline in vital signs (systolic blood pressure [SBP], diastolic blood pressure [DBP], and pulse rate) and body weight, ECG abnormalities, marked laboratory abnormalities, and change from baseline in WHO FC.
The statistical analysis was mainly descriptive, without formal hypothesis testing. Exact Pearson-Clopper CIs for the incidence of AEs were computed.

[1] = Overall (Periods 1, 2, and 3, and safety-follow-up combined), 20 subjects
[2] = Overall (Periods 1, 2, and 3 with safety-follow-up combined)
[3] = Period 1 (oral selexipag), total, N = 20
[4] = Period 1 (oral selexipag, 24 h), high dose cohort (1200-1600 μg), N = 12
[5] = Period 1 (oral selexipag, 24 h), high dose cohort (1200-1600 μg), N = 12, listed as Uptravi
[6] = Period 1 (oral selexipag, 24 h), low dose cohort (200-1000 μg), N = 8
[7] = Period 1 (oral selexipag, 24 h), total, N = 20
[8] = Period 2 (i.v. selexipag, 36 h), high dose cohort (1200-1600 μg), N = 12
[9] = Period 2 (i.v. selexipag, 36 h), low dose cohort (200-1000 μg), N = 8
[10] = Period 2 (i.v. selexipag, 36 h), total, N = 20
[11] = Period 2 (intravenous selexipag treatment), high dose cohort (1200-1600 μg), N = 12

CC(C)N(CCCCOCC(=O)NS(C)(=O)=O)c1cnc(-c2ccccc2)c(-c2ccccc2)n1 [selexipag, 2-{4-[(5,6-diphenylpyrazin-2-yl)(propan-2-yl)amino]butoxy}-N-(methanesulfonyl)acetamide]
No subject: prematurely discontinued study treatment (Period 2 (3 i.v. infusions of selexipag))
1 (12.5) n (%): AE incidence: Swelling face [6] | Subjects with at least one AE [6] | AE incidence: Dysgeusia [9] | AE incidence: Epistaxis [9] | AE incidence: Headache [9] | AE incidence: Incorrect drug administration rate [9] | AE incidence: Lymphadenopathy [9] | AE incidence: Tachycardia [9]
2 n (%): Subjects with at least one AE (Period 1 (oral selexipag, 24 h), total, N = 20, listed as Uptravi) | AE incidence: Infusion site erythema [8] | AE incidence: Infusion site erythema [10]
1 n (%): AE incidence: Sleep disorder [4] | Subjects with at least one AE [4] | AE incidence: Sleep disorder [7] | AE incidence: Swelling face [7] | AE incidence: Diarrhoea [8] | AE incidence: Flatulence [8] | AE incidence: Flushing [8] | AE incidence: Infusion site swelling [8] | AE incidence: Myalgia [8] | AE incidence: Nasal congestion [8] | AE incidence: Nausea [8] | AE incidence: Pain in jaw [8] | AE incidence: Tension headache [8] | AE incidence: Vascular access complication [8] | AE incidence: Vomiting [8] | AE incidence: Diarrhoea [10] | AE incidence: Dysgeusia [10] | AE incidence: Epistaxis [10] | AE incidence: Flatulence [10] | AE incidence: Flushing [10] | AE incidence: Incorrect drug administration rate [10] | AE incidence: Infusion site swelling [10] | AE incidence: Lymphadenopathy [10] | AE incidence: Myalgia [10] | AE incidence: Nasal congestion [10] | AE incidence: Nausea [10] | AE incidence: Pain in jaw [10] | AE incidence: Tachycardia [10] | AE incidence: Tension headache [10] | AE incidence: Vascular access complication [10] | AE incidence: Vomiting [10] | Prostacyclin-associated AE incidence: Diarrhoea [11] | Prostacyclin-associated AE incidence: Flushing [11] | Prostacyclin-associated AE incidence: Myalgia [11] | Prostacyclin-associated AE incidence: Nausea [11] | Prostacyclin-associated AE incidence: Pain in jaw [11] | Prostacyclin-associated AE incidence: Tension headache [11]
0 n (%): Subjects with at least one prostacyclin-associated AE (Period 1 (oral selexipag), high dose cohort (1200-1600 μg), N = 12) | Subjects with at least one prostacyclin-associated AE (Period 1 (oral selexipag), low dose cohort (200-1000 μg), N = 8) | Deaths [3] | Discontinuations due to prostacyclin-associated AEs [3] | Number of subjects with at least one Prostacyclin-associated AEs [3] | Number of subjects with at least one Serious adverse events (SAEs) [3] | SAE incidence: Blindness unilateral [3] | SAE incidence: Rhegmatogenous retinal detachment [3] | SAE incidence: Right ventricular failure [3] | AE incidence: Swelling face [4] | AE incidence: Sleep disorder [6] | AE incidence: Dysgeusia [8] | AE incidence: Epistaxis [8] | AE incidence: Incorrect drug administration rate [8] | AE incidence: Lymphadenopathy [8] | AE incidence: Tachycardia [8] | AE incidence: Diarrhoea [9] | AE incidence: Flatulence [9] | AE incidence: Flushing [9] | AE incidence: Infusion site erythema [9] | AE incidence: Infusion site swelling [9] | AE incidence: Myalgia [9] | AE incidence: Nasal congestion [9] | AE incidence: Nausea [9] | AE incidence: Pain in jaw [9] | AE incidence: Tension headache [9] | AE incidence: Vascular access complication [9] | AE incidence: Vomiting [9]
4 subjects: most frequently reported AE preferred term: headache [1]
8 subjects: subjects with mild intensity AEs [2]
15 subjects: subjects with at least 1 AE during the study [1]
4 n (%): AE incidence: Headache [10]
3 n (%): AE incidence: Headache [8] | Prostacyclin-associated AE incidence: Headache [11]
two: subjects with clinically significant injection site reactions as determined by the investigator (Period 2 (i.v. selexipag))
1 subject: subjects with severe intensity AEs [2]
5 subjects: subjects with moderate intensity AEs [2]
2 n (%) and 2 (10.0) n (%): Subjects with at least one AE [7]
4 (50.0) n (%): Subjects with at least one AE [9]
6 n (%): Subjects with at least one AE [8]
10 n (%): Subjects with at least one AE [10]
1 (8.3) n (%): AE incidence: Sleep disorder [5] | Subjects with at least one AE [5]
